This note sets out measurements from PMC6688371, “Effect of the inhaled PDE4 inhibitor CHF6001 on biomarkers of inflammation in COPD” (Respiratory Research, 2019).

Read-outs that look alike come from different tables or passages of the source. Marks after values point to notes of the source that are not given here.

The series in a line: Plasma pharmacokinetics at steady state (Day 32). Type of series: in vivo, human. The following applies: for Tmax,ss / CL/F / Cmax / AUC(0-t): plasma on Day 32; for Tmax,ss: median (range); for CL/F / Cmax / AUC(0-t): both sexes, human, inhaled or intranasal, geometric mean (%CV); for AUC(0-t): read-out: AUC0–12,ss. On the procedure:
Induced sputum was collected pre-dose on Day 1 of each treatment period (for the first treatment period, the sample could be collected up to 10 days prior to Day 1), and 2 h post-dose on Days 20, 26 and 32 (see the Additional file 1 for further detail on sputum and blood analysis methods). Blood samples were taken pre-dose on Day 1, and pre-dose and at 30 min, and 1, 1.5, 2, 3, 4, 6, 8 and 12 h post-dose on Day 32. Other pre-dose assessments on Days 1 and 32 were spirometry (forced expiratory volume in 1 s [FEV1] and forced vital capacity [FVC]), forced oscillometry, and COPD Assessment Test (CAT), with Baseline Dyspnea Index recorded on Day 1 and Transition Dyspnea Index (TDI) on Day 32. Central and peripheral airways mechanics were assessed using forced oscillometry, with the following values determined: inspiratory and expiratory resistance (at 5 and 19 Hz), inspiratory and expiratory reactance, tidal expiratory flow limitation and the percentage of flow limited breaths.
The mean changes from baseline to Day 32 for lung function, CAT and TDI were analysed using similar methodology to sputum biomarkers, but were not log-transformed. […] The sputum concentration of CHF6001 was also evaluated at 2 h post-dose, using the mean of all values measured on Days 20, 26 and 32. Pharmacokinetic variables were summarised using geometric means and coefficients of variation, except for Tmax,ss, which is presented as median (range). […]
Validation procedures again followed those outlined for the analysis of biomarkers above. All […]
concentrations of biomarkers in human serum or plasma from regulatory studies.
Blood for the pharmacokinetic analysis was collected pre-dose and at 30 min, and 1, 1.5, 2, 3, 4, 6, 8 and 12 h post-dose on Day 32 of each treatment period. Samples were centrifuged at 2000 g for 15 min at 4C, with the resulting plasma shipped to the central laboratory at –60 […]
to –90C. The plasma concentration of CHF6001 was evaluated using a LC-MS/MS method following solid phase extraction. Validation procedures again followed those outlined for the analysis of biomarkers above. The bioanalytical method wa s found to be linear over the calibration range of 10 to 20,000 pg/mL. The precision and accuracy of the method was found to be within the target limits of within 20% at the lower limit of quantification 10 pg/mL and within 15% at all other concentrations.
The recovery of CHF6001 from human plasma was consistent across the analytical range , with no significant matrix effects. […]
for up to 24 h at the sample processing temperature (nominally +20C), a fter storage for 184 days in a freezer (nominally –80C) and after four freeze-thaw cycles at nominally – 80C / +20C. Therefore the method was considered to be suitable for measuring concentrations of CHF6001 in human plasma samples from regulatory studies.
The study was approved by two centralised ethics committees on behalf of the sites:
• UK: Health Research Authority, North West, Greater Manchester South Research Ethics Committee, Manchester (approval reference 16/NW/0553).
• Germany: Ethics Committee of Hesse Medical Association, Frankfurt am Main (approval reference FF 98/2016).
Patients had to meet all the following inclusion criteria to be eligible for enrolment into the […]
1. Written informed consent obtained prior to any study-related procedures;
2. Male or female aged ≥40 years;
3. A female was eligible to enter the study if they were of non-childbearing potential, i.e. physiologically incapable of becoming pregnant (e.g. postmenopausal women defined as being amenorrhoeic for ≥12 consecutive months without an alternative medical cause. If indicated, as per Investigator’s request, post -menopausal status

In the case of `CS(=O)(=O)Nc1ccc(C(=O)O[C@@H](Cc2c(Cl)c[n+]([O-])cc2Cl)c2ccc(OC(F)F)c(OCC3CC3)c2)cc1OCC1CC1` [CHF6001], for the setting “800 μg BID inhaled”, the “Tmax,ss” value is 2.00 (0.50; 4.08)^a h. Also, under “1600 μg BID inhaled”, the “Tmax,ss” value was 2.00 (0.48; 4.05)^b h. Further, under “Day 32, 800 vs 1600 μg BID”, the “Systemic exposure in relation to dose” value is “broadly proportional to dose”. Further, for the setting “800 ug, 800 μg BID inhaled”, the CL/F (commonly clearance divided by bioavailability, as obtained after extravascular dosing) was 603 mL/min; the peak level (Cmax) was 2.44 ng/mL; the AUC(0-t) amounted to 22.1 ng·h/mL. For the same compound, where the note is “1600 ug, 1600 μg BID inhaled”, the apparent clearance (CL/F) was 653 mL/min; the Cmax – broadly, the peak of the concentration-time curve – came to 4.5 ng/mL; the AUC(0-t) turned out to be 40.8 ng·h/mL.
